Measurements as given in patent US20220378923A1, “BET DEGRADER” (KYOWA KIRIN CO., LTD., priority 2019, published 2022).

Key:
Assay type in all cases: cell-based
Conditions in all cases: SU-DHL-4 cells, test compound 100 nmol/L, 24 hours
BRD3 = target: T1, BRD3 (Homo sapiens, UniProt Q15059); assay: Evaluation of BET proteolysis in SU-DHL-4 cell line by Western blotting: BRD3 (Test Example 4)
T1 construct: Changes in the amount of BRD4, BRD2 and BRD3 proteins in the SU-DHL-4 cell line; endogenous in cells; host or cells: SU-DHL-4
T1 sequence (Q15059 whole entry): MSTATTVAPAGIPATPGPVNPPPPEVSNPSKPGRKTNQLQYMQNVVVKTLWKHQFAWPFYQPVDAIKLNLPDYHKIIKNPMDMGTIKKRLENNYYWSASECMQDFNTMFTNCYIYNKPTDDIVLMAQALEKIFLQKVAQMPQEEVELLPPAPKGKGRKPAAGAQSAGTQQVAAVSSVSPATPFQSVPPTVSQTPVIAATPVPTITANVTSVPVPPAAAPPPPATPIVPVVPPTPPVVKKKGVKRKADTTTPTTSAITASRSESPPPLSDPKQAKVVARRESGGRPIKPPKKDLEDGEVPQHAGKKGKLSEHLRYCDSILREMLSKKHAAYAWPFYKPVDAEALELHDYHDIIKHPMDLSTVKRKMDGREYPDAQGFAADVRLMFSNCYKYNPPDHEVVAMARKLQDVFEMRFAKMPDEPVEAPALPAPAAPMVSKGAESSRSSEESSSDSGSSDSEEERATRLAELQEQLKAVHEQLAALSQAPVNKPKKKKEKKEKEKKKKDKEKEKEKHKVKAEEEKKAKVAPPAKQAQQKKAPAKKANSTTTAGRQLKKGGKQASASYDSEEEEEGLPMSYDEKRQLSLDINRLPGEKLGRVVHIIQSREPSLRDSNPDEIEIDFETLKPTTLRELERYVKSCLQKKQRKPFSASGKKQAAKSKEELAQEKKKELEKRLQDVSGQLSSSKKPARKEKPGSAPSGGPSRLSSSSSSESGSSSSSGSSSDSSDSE
Method: (§1) The human DLBCL cell line SU-DHL-4 was purchased from DSMZ. SU-DHL-4 was passaged using RPMI1640 medium containing 10 vol % FBS. The culture conditions were 37° C. and 5% CO2.
Anti-BRD3 antibody: Anti-BRD3 antibody (2088C3a) (Santa Cruz Biotechnology, Cat No. sc-81202)
(§2) Changes in the amount of BRD4, BRD2 and BRD3 proteins in the SU-DHL-4 cell line by the test compound (compound 1b, compound 1l or compound P3) were detected by WB. The compound P3 is a compound described as example 14 in the known Patent Document 2 (WO 2015/081284), which was synthesized according to the method described in Patent Document 2 and used in this test.
(§3) The cultured SU-DHL-4 cells were seeded at 6×10^5 cells/well in a transparent 6-well plate (Code No. 140675, Thermo Fisher Scientific). After seeding, the cells were pre-cultured at 37° C. in a carbon dioxide gas incubator for 18 to 25 hours. Next, a 0.1 mmol/L DMSO solution of the test compound was prepared, diluted so that the concentration was 200-fold of the final concentration in RPMI1640 medium containing the above FBS and PS, and 1/200 volume of the diluted solution was added to each well. At this time, the final concentration of DMSO was adjusted to be 0.1 vol %. After adding the test compound, the cells were cultured at 37° C. in a carbon dioxide gas incubator for 24 hours.
(§4) After collecting the cells, the supernatant was aspirated, and Lysis buffer 6 (R&D systems, Cat No. 895561) was added to the pellet at 0.1 mL/sample. After incubating on ice for 60 minutes, the supernatant was collected by centrifugation at 15000 rpm for 10 minutes at 4° C.
(§5) Using Pierce BCA Protein Assay Kit (Thermo Fisher, Cat No. 23225), the protein concentration of each sample was quantified according to the manual attached to the kit, and then was diluted and prepared with Lane Marker Reducing Sample Buffer (5×) (Thermo Fisher, Cat No. 39000) and Lysis buffer 6 to 1 mg/mL. The cells were incubated at 95° C. for 5 minutes to prepare WB samples. WB samples were stored at −30° C. until electrophoresis.
(§6) The WB sample was thawed and used after vortex mixing and spin down. […]

BRD4 = target: T2, BRD4 (Homo sapiens, UniProt O60885); assay: Evaluation of BET proteolysis in SU-DHL-4 cell line by Western blotting: BRD4 (Test Example 4)
T2 construct: Changes in the amount of BRD4, BRD2 and BRD3 proteins in the SU-DHL-4 cell line; endogenous in cells; host or cells: SU-DHL-4
Method: as §1
Anti-BRD4 antibody: BRD4 (E2A7X) Rabbit mAb (Cell Signaling Technology, Cat No. #13440S)
as §2, §3, §4, §5, §6

BRD2 = target: T3, BRD2 (Homo sapiens, UniProt P25440); assay: Evaluation of BET proteolysis in SU-DHL-4 cell line by Western blotting: BRD2 (Test Example 4)
T3 construct: Changes in the amount of BRD4, BRD2 and BRD3 proteins in the SU-DHL-4 cell line; endogenous in cells; host or cells: SU-DHL-4
T3 sequence (P25440 whole entry): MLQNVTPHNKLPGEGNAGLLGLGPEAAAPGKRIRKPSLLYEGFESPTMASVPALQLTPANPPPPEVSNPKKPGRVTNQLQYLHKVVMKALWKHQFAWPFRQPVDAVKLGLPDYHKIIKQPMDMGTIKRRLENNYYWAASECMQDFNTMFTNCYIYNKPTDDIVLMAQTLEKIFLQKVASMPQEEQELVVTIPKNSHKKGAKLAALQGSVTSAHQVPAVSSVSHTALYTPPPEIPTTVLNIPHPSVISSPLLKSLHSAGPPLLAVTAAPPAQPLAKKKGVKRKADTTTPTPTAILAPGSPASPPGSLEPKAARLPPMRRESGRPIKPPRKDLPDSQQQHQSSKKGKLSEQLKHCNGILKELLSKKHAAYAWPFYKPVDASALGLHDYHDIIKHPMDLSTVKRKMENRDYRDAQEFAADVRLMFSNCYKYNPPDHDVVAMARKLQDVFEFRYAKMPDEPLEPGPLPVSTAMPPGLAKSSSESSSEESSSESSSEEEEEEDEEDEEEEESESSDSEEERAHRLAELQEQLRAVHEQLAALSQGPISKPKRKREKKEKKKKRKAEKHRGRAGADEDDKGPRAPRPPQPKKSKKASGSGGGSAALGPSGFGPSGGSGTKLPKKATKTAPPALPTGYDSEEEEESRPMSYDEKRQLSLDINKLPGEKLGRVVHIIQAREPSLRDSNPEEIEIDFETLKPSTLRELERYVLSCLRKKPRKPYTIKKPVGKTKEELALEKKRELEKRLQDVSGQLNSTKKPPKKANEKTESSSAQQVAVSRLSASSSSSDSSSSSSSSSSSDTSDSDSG
Method: as §1
Anti-BRD2 antibody: Brd2 (D8964) Rabbit mAb (Cell Signaling Technology, Cat No. #5848S)
as §2, §3, §4, §5, §6

| Structure (SMILES) | change in amount of BRD3 protein (band in Western blotting, FIG. 1) (BRD3) | change in amount of BRD4 protein (band in Western blotting, FIG. 1) (BRD4) | change in amount of BRD2 protein (band in Western blotting, FIG. 1) (BRD2) |
| --- | --- | --- | --- |
| Cc1sc2c(c1C)C(c1ccc(C(=O)NCCCNC(=O)c3ccc(C4=N[C@@H](CC(=O)OC(C)(C)C)c5nnc(C)n5-c5sc(C)c(C)c54)cc3)cc1)=N[C@@H](CC(=O)OC(C)(C)C)c1nnc(C)n1-2 [Compound 1b, Di-tert-butyl 2,2′-[(6S,6′S)-({[propane-1,3-diylbis(azanediyl)]bis(carbonyl)}bis(4,1-phenylene))bis(2,3,9-trimethyl-6H-thieno[3,2-f][1,2,4]triazolo[4,3-a][1,4]diazepine-4,6-diyl)]diacetate] | the band became faint compared with that of control | the band became faint compared with that of control | the band became faint compared with that of control |
| CCC(=O)N1c2ccccc2[C@H](Nc2ccc(C(=O)NCC(=O)CNC(=O)c3ccc(N[C@@H]4C[C@H](C)N(C(=O)CC)c5ccccc54)cc3)cc2)C[C@@H]1C [Compound 1l, N,N′-(2-Oxopropane-1,3-diyl)bis(4-{[(2S,4R)-2-methyl-1-propionyl-1,2,3,4-tetrahydroquinolin-4-yl]amino}benzamide)] | the band became faint compared with that of control | the band became faint compared with that of control | the band became faint compared with that of control |
